# From patent US10870832B2, “Use of small molecules to enhance MAFA expression in pancreatic endocrine cells” (Janssen Biotech, Inc., priority 2014, dated 2020)
# Biological target: PKCβ1(h) (Homo sapiens, UniProt P05771)
# Assay: Kinase profiling of R428
# Format: biochemical
# Settings: 100 μM ATP, lower number = more robust inhibition
# Outline: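 Kinases were profiled by an outsourced service at 100 μM ATP, and R428 was added at 1 or 10 μM. Activity relative to uninhibited kinase was then recorded.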
# Sequence of PKCβ1(h) (P05771 whole entry): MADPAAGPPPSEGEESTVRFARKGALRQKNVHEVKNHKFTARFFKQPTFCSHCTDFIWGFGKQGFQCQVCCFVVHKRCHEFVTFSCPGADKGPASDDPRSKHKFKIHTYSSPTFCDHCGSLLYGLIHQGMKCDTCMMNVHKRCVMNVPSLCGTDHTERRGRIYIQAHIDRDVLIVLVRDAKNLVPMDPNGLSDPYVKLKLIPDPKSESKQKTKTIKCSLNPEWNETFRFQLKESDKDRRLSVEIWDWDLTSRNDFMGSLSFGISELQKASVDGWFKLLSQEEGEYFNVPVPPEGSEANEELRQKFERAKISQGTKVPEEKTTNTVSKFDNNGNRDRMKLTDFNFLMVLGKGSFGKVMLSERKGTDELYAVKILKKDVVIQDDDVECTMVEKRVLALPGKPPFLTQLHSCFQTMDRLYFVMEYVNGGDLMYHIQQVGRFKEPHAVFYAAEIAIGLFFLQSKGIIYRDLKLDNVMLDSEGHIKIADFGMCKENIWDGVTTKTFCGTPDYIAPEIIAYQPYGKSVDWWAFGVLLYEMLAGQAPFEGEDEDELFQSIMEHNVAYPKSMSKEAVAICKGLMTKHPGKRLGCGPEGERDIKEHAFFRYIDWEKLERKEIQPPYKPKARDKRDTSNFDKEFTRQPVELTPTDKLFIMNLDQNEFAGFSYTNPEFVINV
smiles,measurement,setting,value
"Nc1nc(Nc2ccc3c(c2)CC[C@@H](N2CCCC2)CC3)nn1-c1cc2c(nn1)-c1ccccc1CCC2 [R428, 1H-1,2,4-Triazole-3,5-diamine, 1-(6,7-dihydro-5H-benzo[6,7]cyclohepta[1,2-c]pyridazin-3-yl) N3-[(7S)-6,7,8,9-tetrahydro-7-(1-pyrrolidinyl)-5H-benzocyclohepten-2-yl]-]",efficiency in targeting PKCβ1(h),R428 @ 1 μM,102
same,efficiency in targeting PKCβ1(h),R428 @ 10 μM,95
